# Measured values: patent US20240309014A1, “MACROCYCLIC COMPOUNDS AND USES THEREOF” (President and Fellows of Harvard College, priority 2017, published 2024)
# Experiments:
# [1] = system: CD31-positive vessel in FaDu tumor; assay: Effect on CD31-positive vessel in the FaDu subcutaneous model (FIG. 13); assay type: in vivo, nude mice; conditions: single i.v. administration at 20, 60, and 180 μg/kg, five days after
# Procedure: A human squamous cell carcinoma of the head and neck (SCCHN) cell line FaDu, which had been cultured in an RPMI-1640 medium containing 10% FBS, and penicillin-streptomycin (culture medium), was adjusted to a concentration of 5×10^7 cells/mL with culture medium to prepare a cell suspension. The cell suspension was inoculated in a volume of 100 μL into a subcutaneous part of a right flank of nude mice, 6 weeks of ages (CAnN.Cg-Foxnlnu/CrlCrlj, female, Charles River Laboratories Japan, Inc.). Ten days after cell inoculation, the mice were grouped such that averages of the tumor volumes were substantially equal among the groups. The experiment was conducted on groups each consisting of 6 mice. Each test compound was dissolved in DMSO and a solution was stored in the freezer before use. Immediately before the administration, the stock solution was diluted with saline. […] The number of blood vessels in the whole tumor was quantified by counting the CD31-positive objects using inform 2 software (PerkinElmer Inc.) Area of the tumor region was measured by assessing the hematoxylin-staining area using inform 2 software (PerkinElmer Inc.) The number of blood vessels was normalized by the area of the tumor region. […] The ratios of blood vessel number in the test compound-dosing groups compared to non-treat group were calculated with the below formula: […]
# [2] = system: human endometrial cancer cell line AN3CA xenograft; assay: AN3CA endometrial cancer xenograft as monotherapy (FIG. 18); assay type: in vivo, nude mice; conditions: 180 μg/kg i.v. Day 1 and Day 8
# Procedure: A human endometrial cancer cell line AN3CA, which had been cultured in an E-MEM containing 10% FBS, and penicillin-streptomycin, was adjusted to a concentration of 1.4×10^8 cells/mL with Hanks' Balanced Salt Solution to prepare a cell suspension, and the suspension was mixed with Geltrex® (Thermo Fisher Scientific Inc., #A1413202) in a ratio of 1:1 to prepare a cell suspension in a concentration of 7×10^7 cells/mL. The cell suspension was inoculated in a volume of 100 μL into a subcutaneous part of a right flank of nude mice, 6 weeks of ages (CAnN.Cg-Foxnlnu/CrlCrlj, female, Charles River Laboratories Japan Inc.). Twelve days after cell inoculation (Day 1), the shortest diameter and the longest diameter of a tumor in each mouse were measured by using an electronic digital caliper (Digimatic™ caliper, Mitutoyo Corporation), so as to calculate the volume of the tumor in accordance with the following calculation formulae: […]
# On the basis of the volumes of tumors obtained on Day 1, the mice were grouped such that averages of the tumor volumes were substantially equal among the groups. The experiment was conducted on groups each consisting of five mice. The test compound was dissolved in DMSO and a solution was stored in the freezer before use. Immediately before the administration, the stock solution was diluted with saline. […]
# [3] = system: human fibrosarcoma cell line HT-1080 xenograft; assay: HT-1080 xenograft as monotherapy (FIG. 17); assay type: in vivo, athymic mice; conditions: 180 μg/kg i.v. Day 1 and Day 8
# Procedure: A human fibrosarcoma cell line HT-1080, which had been cultured in an E-MEM containing 10% FBS, NEAA and antibiotics was adjusted to a concentration of 3×10^7 cells/mL with medium to prepare a cell suspension. The cell suspension was inoculated in a volume of 100 μL into a subcutaneous part of a right flank of athymic mice (CAnN.Cg-Foxnlnu/CrlCrlj, female, 6 weeks old, Charles River Japan Inc.). Six days after cell inoculation (Day 1), the length and the width of a tumor in each mouse were measured by using an electronic digital caliper (Mitutoyo Corporation), so as to calculate the volume of the tumor in accordance with the following calculation formula: […]
# On the basis of TV, the mice were randomly grouped (Day 1). Each group was consisted in six mice. Compound (1) was dissolved in DMSO and a solution was stored in the freezer before use. Compound (1) (180 μg/kg) was diluted with saline and intravenously injected on Day 1 and Day 8.
compound,measurement,setting,value
C=C1C[C@@H]2CC[C@@]34C[C@H]5O[C@H]6[C@@H](O3)[C@H]3O[C@H](CC[C@@H]3O[C@H]6C5O4)CC(=O)O[C@@H]3[C@@H](C)[C@@H]4O[C@@H]5C[C@]6(C[C@@H]7O[C@]8(C[C@H](C)[C@@H]9O[C@H](CN)[C@H](O)C[C@@H]9O8)C[C@H](C)[C@@H]7O6)O[C@@H]5C[C@@H]4O[C@H]3C[C@H]3O[C@@H](CC[C@@H]1O2)C[C@@H](C)C3=C (stereo in doubt) [Compound (1)],tumor blood vessel number,[1],increased the tumor blood vessel number
same,antitumor activity,[2],tumor regression
same,antitumor activity,[3],tumor regression
